# Reference: ChEMBL document CHEMBL1201862, “PubChem BioAssay data set” (2004)
#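 Five compound concentrations were applied to cells in 96-well plates for 48 hours; endpoints were derived by simple linear interpolation of the resulting dose-response curve. GI50 is the concentration that inhibits growth by half.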 The source made the active and inactive calls. Rule as the data show it: active = GI50 up to about 1.1 µM and inactive = higher.
# Legend:
# Experiment in all cases: NCI tumour cell line growth inhibition, 48 h
# [1] = system: HL-60
# [2] = system: SK-MEL-2
# [3] = system: A498
# [4] = system: SNB-75
# [5] = system: SR
# [6] = system: HCT-15
# [7] = system: KM12
# [8] = system: Malme-3M
# [9] = system: SNB-19
# [10] = system: ACHN
# [11] = system: NCI-H23
# [12] = system: M14
# [13] = system: DLD-1
# [14] = system: EKVX
# [15] = system: SW-620
# [16] = system: LOX IMVI
# [17] = system: HT-29
# [18] = system: NCI-H522
# [19] = system: SF-295
# [20] = system: KM-20L2
# [21] = system: U-251
# [22] = system: RPMI-8226
# [23] = system: DMS-273
# [24] = system: OVCAR-8
# [25] = system: SK-MEL-5
# [26] = system: SF-539
# [27] = system: SF-268
# [28] = system: RXF 393
# [29] = system: HOP-92
# [30] = system: HCT-116
# [31] = system: NCI-H460
# [32] = system: OVCAR-3
# [33] = system: SK-OV-3
# [34] = system: HOP-62
# [35] = system: CCRF-CEM
# [36] = system: SN12C
# [37] = system: K562
# [38] = system: XF498
# [39] = system: HCC 2998
# [40] = system: UACC-257
# [41] = system: TK-10
# [42] = system: A549
# [43] = system: SK-MEL-28
# [44] = system: IGROV-1
# [45] = system: MOLT-4
# [46] = system: NCI-H226
# [47] = system: UO-31
# [48] = system: OVCAR-4
# [49] = system: OVCAR-5
# [50] = system: UACC-62
# [51] = system: HOP-18
# [52] = system: M19-MEL
# [53] = system: COLO 205
# [54] = system: LXFL 529
# [55] = system: DMS-114
# [56] = system: 786-0
# [57] = system: CAKI-1
smiles,measurement,setting,value
C=CCOCCC(CC=C)C(=O)CC(=O)OC (stereo not drawn),GI50,[1],13.5 µM (inactive)
same,GI50,[2],> 100 µM (inactive)
same,GI50,[3],> 100 µM (inactive)
same,GI50,[4],25.9 µM (inactive)
same,GI50,[5],3.56 µM (inactive)
same,GI50,[6],> 100 µM
same,GI50,[7],> 100 µM (inactive)
same,GI50,[8],> 100 µM (inactive)
same,GI50,[9],> 100 µM (inactive)
same,GI50,[10],> 100 µM (inactive)
same,GI50,[11],> 100 µM (inactive)
same,GI50,[12],> 100 µM (inactive)
same,GI50,[13],> 100 µM (inactive)
same,GI50,[14],> 100 µM (inactive)
same,GI50,[15],> 100 µM (inactive)
same,GI50,[16],27.9 µM (inactive)
same,GI50,[17],> 100 µM (inactive)
same,GI50,[18],> 100 µM (inactive)
same,GI50,[19],> 100 µM (inactive)
same,GI50,[20],> 100 µM (inactive)
same,GI50,[21],> 100 µM (inactive)
same,GI50,[22],25.3 µM (inactive)
same,GI50,[23],45.3 µM (inactive)
same,GI50,[24],> 100 µM (inactive)
same,GI50,[25],> 100 µM (inactive)
same,GI50,[26],> 100 µM (inactive)
same,GI50,[27],> 100 µM (inactive)
same,GI50,[28],> 100 µM (inactive)
same,GI50,[29],90.4 µM (inactive)
same,GI50,[30],45.6 µM (inactive)
same,GI50,[31],> 100 µM (inactive)
same,GI50,[32],> 100 µM (inactive)
same,GI50,[33],> 100 µM (inactive)
same,GI50,[34],> 100 µM (inactive)
same,GI50,[35],4.23 µM (inactive)
same,GI50,[36],> 100 µM (inactive)
same,GI50,[37],19.3 µM (inactive)
same,GI50,[38],> 100 µM (inactive)
same,GI50,[39],> 100 µM (inactive)
same,GI50,[40],> 100 µM (inactive)
same,GI50,[41],> 100 µM (inactive)
same,GI50,[42],> 100 µM (inactive)
same,GI50,[43],> 100 µM (inactive)
same,GI50,[44],> 100 µM (inactive)
same,GI50,[45],28.5 µM (inactive)
same,GI50,[46],> 100 µM (inactive)
same,GI50,[47],> 100 µM (inactive)
same,GI50,[48],> 100 µM (inactive)
same,GI50,[49],> 100 µM (inactive)
same,GI50,[50],52.8 µM (inactive)
same,GI50,[51],> 100 µM (inactive)
CC(=O)SCCC1c2[nH]c3ccccc3c2CCN1O (stereo not drawn),GI50,[52],> 100 µM (inactive)
same,GI50,[1],36.6 µM (inactive)
same,GI50,[2],> 100 µM (inactive)
same,GI50,[53],> 100 µM (inactive)
same,GI50,[4],18.7 µM (inactive)
same,GI50,[6],71.6 µM
same,GI50,[7],68.9 µM (inactive)
same,GI50,[8],> 100 µM (inactive)
same,GI50,[9],> 100 µM (inactive)
same,GI50,[10],> 100 µM (inactive)
same,GI50,[11],> 100 µM (inactive)
same,GI50,[12],> 100 µM (inactive)
same,GI50,[54],56.4 µM (inactive)
same,GI50,[13],> 100 µM (inactive)
same,GI50,[14],> 100 µM (inactive)
same,GI50,[15],28.1 µM (inactive)
same,GI50,[16],49 µM (inactive)
same,GI50,[17],> 100 µM (inactive)
same,GI50,[18],23.9 µM (inactive)
same,GI50,[19],> 100 µM (inactive)
same,GI50,[20],> 100 µM (inactive)
same,GI50,[21],> 100 µM (inactive)
same,GI50,[22],35.2 µM (inactive)
same,GI50,[23],86.1 µM (inactive)
same,GI50,[55],74.5 µM (inactive)
same,GI50,[24],> 100 µM (inactive)
same,GI50,[25],83 µM (inactive)
same,GI50,[26],> 100 µM (inactive)
same,GI50,[56],> 100 µM (inactive)
same,GI50,[27],> 100 µM (inactive)
same,GI50,[28],78 µM (inactive)
same,GI50,[29],26.7 µM (inactive)
same,GI50,[31],82.8 µM (inactive)
same,GI50,[32],> 100 µM (inactive)
same,GI50,[33],> 100 µM (inactive)
same,GI50,[34],> 100 µM (inactive)
same,GI50,[35],31.8 µM (inactive)
same,GI50,[36],> 100 µM (inactive)
same,GI50,[37],32.4 µM (inactive)
same,GI50,[57],59.7 µM (inactive)
same,GI50,[39],85.1 µM (inactive)
same,GI50,[40],> 100 µM (inactive)
same,GI50,[41],> 100 µM (inactive)
same,GI50,[42],> 100 µM (inactive)
same,GI50,[43],> 100 µM (inactive)
same,GI50,[44],> 100 µM (inactive)
same,GI50,[45],40.6 µM (inactive)
same,GI50,[47],> 100 µM (inactive)
same,GI50,[48],> 100 µM (inactive)
same,GI50,[49],71.4 µM (inactive)
same,GI50,[50],> 100 µM (inactive)
same,GI50,[51],> 100 µM (inactive)
